Experimental data from the supplement of paper PMC10307832.

Legend:
Assay in all cases: relative viability (nuclei count vs DMSO), 5 days (fraction); higher = more cells survive
[1] = system: EBC-1
Procedure, shortened: (§1)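 Medians of duplicate plates are given as relative viability. That measure is the nuclei count in treated wells divided by the count in vehicle wells. Counts were taken on 4× images of lung cancer cell lines in 1536-well plates, 5 days after pin-tool dosing the day after seeding with one drug alone or a fixed anchor-drug dose plus five library-drug doses (not always all listed) in √10 steps.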

[2] = system: NCI-H1623
Procedure, shortened: as §1

[3] = system: A-427
Procedure, shortened: as §1

[4] = system: NCI-H2009
Procedure, shortened: as §1

[5] = system: NCI-H1703
Procedure, shortened: as §1

[6] = system: NCI-H1299
Procedure, shortened: as §1

[7] = system: NCI-H1650
Procedure, shortened: as §1

[8] = system: UMC-11
Procedure, shortened: as §1

[9] = system: Calu-6
Procedure, shortened: as §1

[10] = system: NCI-H1734
Procedure, shortened: as §1

[11] = system: A549
Procedure, shortened: as §1

[12] = system: CAL-12T
Procedure, shortened: as §1

[13] = system: LK-2
Procedure, shortened: as §1

[14] = system: IA-LM
Procedure, shortened: as §1

[15] = system: NCI-H1648
Procedure, shortened: as §1

Nc1ccn([C@@H]2O[C@H](CO)[C@@H](O)[C@@H]2O)c(=O)n1 [Cytarabine] + COc1cc2c(Oc3ccc(NC(=O)C4(C(=O)Nc5ccc(F)cc5)CC4)cc3F)ccnc2cc1OCCCN1CCOCC1 [Foretinib] (partner 0.25 µM)
relative viability ([1]; first compound 0.005 µM): 0.0948 | relative viability ([1]; first compound 0.01581 µM): 0.0902 | relative viability ([1]; first compound 0.05 µM): 0.0964 | relative viability ([1]; first compound 0.1581 µM): 0.0746 | relative viability ([1]; first compound 0.5 µM): 0.076 | relative viability ([2]; first compound 0.005 µM): 0.695 | relative viability ([2]; first compound 0.01581 µM): 0.545 | relative viability ([2]; first compound 0.05 µM): 0.375 | relative viability ([2]; first compound 0.1581 µM): 0.463 | relative viability ([2]; first compound 0.5 µM): 0.577 | relative viability ([3]; first compound 0.005 µM): 0.975 | relative viability ([3]; first compound 0.01581 µM): 0.399 | relative viability ([3]; first compound 0.05 µM): 0.296 | relative viability ([3]; first compound 0.1581 µM): 0.182 | relative viability ([3]; first compound 0.5 µM): 0.176 | relative viability ([4]; first compound 0.005 µM): 1.23 | relative viability ([4]; first compound 0.01581 µM): 1.22 | relative viability ([4]; first compound 0.05 µM): 1.19 | relative viability ([4]; first compound 0.1581 µM): 0.981 | relative viability ([4]; first compound 0.5 µM): 0.503 | relative viability ([5]; first compound 0.005 µM): 0.251 | relative viability ([5]; first compound 0.01581 µM): 0.273 | relative viability ([5]; first compound 0.05 µM): 0.253 | relative viability ([5]; first compound 0.1581 µM): 0.195 | relative viability ([5]; first compound 0.5 µM): 0.158 | relative viability ([6]; first compound 0.005 µM): 1.15 | relative viability ([6]; first compound 0.01581 µM): 1.13 | relative viability ([6]; first compound 0.05 µM): 1.05 | relative viability ([6]; first compound 0.1581 µM): 1.12 | relative viability ([6]; first compound 0.5 µM): 1.16 | relative viability ([7]; first compound 0.005 µM): 0.783 | relative viability ([7]; first compound 0.01581 µM): 0.973 | relative viability ([7]; first compound 0.05 µM): 0.73 | relative viability ([7]; first compound 0.1581 µM): 0.347 | relative viability ([7]; first compound 0.5 µM): 0.211 | relative viability ([8]; first compound 0.005 µM): 0.653 | relative viability ([8]; first compound 0.01581 µM): 0.63 | relative viability ([8]; first compound 0.05 µM): 0.45 | relative viability ([8]; first compound 0.1581 µM): 0.349 | relative viability ([8]; first compound 0.5 µM): 0.261 | relative viability ([9]; first compound 0.005 µM): 0.796 | relative viability ([9]; first compound 0.01581 µM): 0.702 | relative viability ([9]; first compound 0.05 µM): 0.707 | relative viability ([9]; first compound 0.1581 µM): 0.405 | relative viability ([9]; first compound 0.5 µM): 0.233 | relative viability ([10]; first compound 0.005 µM): 0.553 | relative viability ([10]; first compound 0.01581 µM): 0.373 | relative viability ([10]; first compound 0.05 µM): 0.205 | relative viability ([10]; first compound 0.1581 µM): 0.164 | relative viability ([10]; first compound 0.5 µM): 0.124 | relative viability ([11]; first compound 0.005 µM): 0.622 | relative viability ([11]; first compound 0.01581 µM): 0.629 | relative viability ([11]; first compound 0.05 µM): 0.336 | relative viability ([11]; first compound 0.1581 µM): 0.071 | relative viability ([11]; first compound 0.5 µM): 0.0358 | relative viability ([12]; first compound 0.005 µM): 1.11 | relative viability ([12]; first compound 0.01581 µM): 1.18 | relative viability ([12]; first compound 0.05 µM): 1.05 | relative viability ([12]; first compound 0.1581 µM): 0.619 | relative viability ([12]; first compound 0.5 µM): 0.358 | relative viability ([13]; first compound 0.005 µM): 1.33 | relative viability ([13]; first compound 0.01581 µM): 0.683 | relative viability ([13]; first compound 0.05 µM): 0.741 | relative viability ([13]; first compound 0.1581 µM): 0.309 | relative viability ([13]; first compound 0.5 µM): 0.282 | relative viability ([14]; first compound 0.005 µM): 0.802 | relative viability ([14]; first compound 0.01581 µM): 1.05 | relative viability ([14]; first compound 0.05 µM): 0.916 | relative viability ([14]; first compound 0.1581 µM): 0.592 | relative viability ([14]; first compound 0.5 µM): 0.246

COc1cc2nccc(Oc3ccc(NC(=O)Nc4cc(C)on4)c(Cl)c3)c2cc1OC [Tivozanib] + COc1cccc2cc(-c3nc([C@H]4CC[C@H](C(=O)O)CC4)n4ncnc(N)c34)[nH]c12 [OSI-027] (partner 0.5 µM)
relative viability ([2]; first compound 0.005 µM): 0.414 | relative viability ([2]; first compound 0.01581 µM): 0.445 | relative viability ([2]; first compound 0.05 µM): 0.431 | relative viability ([2]; first compound 0.1581 µM): 0.407 | relative viability ([2]; first compound 0.5 µM): 0.459 | relative viability ([3]; first compound 0.005 µM): 0.458 | relative viability ([3]; first compound 0.01581 µM): 0.492 | relative viability ([3]; first compound 0.05 µM): 0.552 | relative viability ([3]; first compound 0.1581 µM): 0.434 | relative viability ([3]; first compound 0.5 µM): 0.368 | relative viability ([4]; first compound 0.005 µM): 0.605 | relative viability ([4]; first compound 0.01581 µM): 0.689 | relative viability ([4]; first compound 0.05 µM): 0.65 | relative viability ([4]; first compound 0.1581 µM): 0.374 | relative viability ([4]; first compound 0.5 µM): 0.386 | relative viability ([7]; first compound 0.005 µM): 0.524 | relative viability ([7]; first compound 0.01581 µM): 0.746 | relative viability ([7]; first compound 0.05 µM): 0.709 | relative viability ([7]; first compound 0.1581 µM): 0.591 | relative viability ([7]; first compound 0.5 µM): 0.558 | relative viability ([8]; first compound 0.005 µM): 0.491 | relative viability ([8]; first compound 0.01581 µM): 0.451 | relative viability ([8]; first compound 0.05 µM): 0.536 | relative viability ([8]; first compound 0.5 µM): 0.426 | relative viability ([15]; first compound 0.005 µM): 0.255 | relative viability ([15]; first compound 0.01581 µM): 0.25 | relative viability ([15]; first compound 0.05 µM): 0.221 | relative viability ([15]; first compound 0.1581 µM): 0.218 | relative viability ([15]; first compound 0.5 µM): 0.258 | relative viability ([10]; first compound 0.005 µM): 0.567 | relative viability ([10]; first compound 0.01581 µM): 0.621 | relative viability ([10]; first compound 0.05 µM): 0.592 | relative viability ([10]; first compound 0.1581 µM): 0.429 | relative viability ([10]; first compound 0.5 µM): 0.558 | relative viability ([12]; first compound 0.005 µM): 0.583 | relative viability ([12]; first compound 0.01581 µM): 0.737 | relative viability ([12]; first compound 0.05 µM): 0.762 | relative viability ([12]; first compound 0.1581 µM): 0.364 | relative viability ([12]; first compound 0.5 µM): 0.418 | relative viability ([13]; first compound 0.005 µM): 0.223 | relative viability ([13]; first compound 0.01581 µM): 0.196 | relative viability ([13]; first compound 0.05 µM): 0.244 | relative viability ([13]; first compound 0.1581 µM): 0.172 | relative viability ([13]; first compound 0.5 µM): 0.194
